Patent publication US10077248B2, “Form of imazapyr, a process for its preparation and use the same” (priority 2015, dated 2018)

Type: physicochemical
Experimental: Samples prepared in Examples 4, and 5 were stored at 54° C. for 1 month, 3 months and 6 months. The procedures are followed according to CIPAC MT 46.3. The concentration of imazapyr was tested at the end of each storage time by high pressure liquid chromatography (HPLC). The aggregation was measured by observation. The original concentration of imazapyr in each formulation was 25%.

SMILES	storage stability / tendency of aggregation (in words)
CC(C)C1(C)N=C(c2ncccc2C(=O)O)NC1=O (racemic) [crystalline modification I of imazapyr, 2-[(RS)-4-isopropyl-4-methyl-5-oxo-2-imidazolin-2-yl]nicotinic acid]	significant increase in its storage stability
CC(C)C1(C)N=C(c2ncccc2C(=O)O)NC1=O (racemic) [imazapyr in amorphous state, 2-[(RS)-4-isopropyl-4-methyl-5-oxo-2-imidazolin-2-yl]nicotinic acid]	high tendency of aggregation after a long storage time
